Data published in patent publication US20130165520A1, “Hybrid Molecule Having Mixed Retinoic Acid Receptor Agonism and Histone Deacetylase Inhibitory Properties” (priority 2010, published 2013).

What was measured:
K-562 = K-562 (Leukemia); 48 h
SK-OV-3 = assay: cells; settings: Homo sapiens, SK-OV-3, 48 h
UACC-257 = UACC-257 (Melanoma); 48 h
UO-31 = assay: cells; settings: Homo sapiens, UO-31, 48 h
OVCAR-8 = settings: 48 h
HT29 = HT29 (Colon); 48 h
SK-MEL-2 = SK-MEL-2 (Melanoma); 48 h
MOLT-4 [1] = assay: cells; settings: Homo sapiens, MOLT-4, 48 h
[2] = tested on: NCI-60 panel of human tumor cell lines; assay: NCI-60 in vitro cancer screen (SRB), whole panel; assay type: cell-based; settings: all cell lines, read-out: GC-50 values, range over all cell lines
Protocol: Both RARs and HDACs are ubiquitously expressed in cell lines and tissue. It was therefore surmised that hybrid 3 could display cytotoxic activities in a wide variety of cell lines.
The human tumor cell lines of the cancer screening panel are grown in RPMI 1640 medium containing 5% fetal bovine serum and 2 mM L-glutamine. For a typical screening experiment, cells are inoculated into 96 well microtiter plates in 100 μL at plating densities ranging from 5,000 to 40,000 cells/well depending on the doubling time of individual cell lines. After cell inoculation, the microtiter plates are incubated at 37° C., 5% CO2, 95% air and 100% relative humidity for 24 h prior to addition of experimental drugs. […]
Following drug addition, the plates are incubated for an additional 48 h at 37° C., 5% CO2, 95% air, and 100% relative humidity. […] Bound stain is subsequently solubilized with 10 mM trizma base, and the absorbance is read on an automated plate reader at a wavelength of 515 nm. […] Using the absorbance measurements [time zero, (Tz), control growth, (C), and test growth in the presence of drug at the five concentration levels (Ti)], the percentage growth is calculated at each of the drug concentration levels. Percentage growth inhibition is calculated as: [(Ti-Tz)/(C-Tz)]×100 for concentrations for which Ti>/=Tz; and [(Ti-Tz)/Tz]×100 for concentrations for which Ti<Tz. […]

OVCAR-3 = assay: cells; settings: Homo sapiens, OVCAR-3, 48 h
M14 = M14 (Melanoma); 48 h
MCF7 = MCF7 (Breast); 48 h
HCT-15 = HCT-15 (Colon); 48 h
U251 = assay: cells; settings: Homo sapiens, U-251, 48 h
T-47D = T-47D (Breast); 48 h
[3] = tested on: non-tumorogenic immortalized mammary 184b5 cells; assay: Cell growth measurement
RPMI-8226 = assay: cells; settings: Homo sapiens, RPMI-8226, 48 h
OVCAR-4 = settings: 48 h
NCI-H322M = NCI-H322M (Non-Small cell lung cancer); 48 h
MOLT-4 [4] = settings: MOLT-4 (Leukemia); 48 h

CC1(C)CCC(C)(C)c2cc(-c3ccc4cc(C(=O)NO)ccc4c3)ccc21 [hybrid 3]
TGI (K-562): 1460 nM | GI50 (SK-OV-3): 1540 nM | CC50 (SK-OV-3; read-out: LC50): 34800 nM | TGI (UACC-257): 7340 nM | GI50 (UO-31): 404 nM | CC50 (UO-31; read-out: LC50): 4530 nM | TGI (OVCAR-8): 1770 nM | TGI (HT29): 2340 nM | TGI (SK-MEL-2): 6310 nM | GI50 (MOLT-4 [1]): 371 nM | CC50 (MOLT-4 [1]; read-out: LC50): 7800 nM | IC50 [2]: 302 to 4300 nM | GI50 (OVCAR-3): 603 nM | CC50 (OVCAR-3; read-out: LC50): 4480 nM | TGI (M14): 2490 nM | TGI (MCF7): 1680 nM | TGI (HCT-15): 2030 nM | GI50 (U251): 437 nM | CC50 (U251; read-out: LC50): 4800 nM | TGI (T-47D): 4030 nM | effect on growth of non-tumorogenic cells [3]: only minimal effects | GI50 (RPMI-8226): 689 nM | CC50 (RPMI-8226; read-out: LC50): > 100000 nM | TGI (OVCAR-4): 5820 nM | TGI (NCI-H322M): 3500 nM | TGI (MOLT-4 [4]): 1460 nM
